Measured values published in the NIST ThermoML archive (doi:10.1016/j.fluid.2019.112274).

Conditions: Liquid; for speed of sound: Brillouin light scattering; for thermal diffusivity: Dynamic light scattering

CCCCCCCCCC(=O)OCC [ethyl decanoate]
Conditions | speed of sound [m/s] | thermal diffusivity [m2/s]
419.73 K, 7000 kPa | 932.2 | –
423.29 K, 10000 kPa | 949.4 | –
429.05 K, 5000 kPa | – | 6.58e-08
429.1 K, 3000 kPa | – | 6.5e-08
429.14 K, 100 kPa | – | 6.39e-08
429.25 K, 10000 kPa | – | 6.78e-08
429.56 K, 100 kPa | 839.8 | –
429.56 K, 3000 kPa | 868.5 | –
429.6 K, 5000 kPa | 884.8 | –
430.45 K, 7000 kPa | 901.1 | –
432.01 K, 10000 kPa | 925 | –
439.2 K, 10000 kPa | 903.9 | –
439.28 K, 100 kPa | 809.5 | –
439.85 K, 3000 kPa | 836.6 | –
440.02 K, 5000 kPa | 854.6 | –
440.37 K, 7000 kPa | 871.6 | –
444.19 K, 100 kPa | – | 6.21e-08
444.35 K, 5000 kPa | – | 6.4e-08
444.38 K, 3000 kPa | – | 6.32e-08
444.46 K, 10000 kPa | – | 6.59e-08
448.51 K, 10000 kPa | 878.1 | –
449.52 K, 7000 kPa | 845.4 | –
450.25 K, 3000 kPa | 805.8 | –
450.25 K, 5000 kPa | 825.6 | –
451.03 K, 100 kPa | 773.3 | –
458.86 K, 5000 kPa | 801.3 | –
459.76 K, 100 kPa | – | 5.97e-08
459.85 K, 3000 kPa | 778.6 | –
459.9 K, 3000 kPa | – | 6.09e-08
460 K, 10000 kPa | – | 6.34e-08
460.01 K, 7000 kPa | – | 6.23e-08
460.11 K, 100 kPa | 746.8 | –
460.12 K, 5000 kPa | – | 6.16e-08
460.2 K, 7000 kPa | 816 | –
463.71 K, 10000 kPa | 837.3 | –
469.25 K, 3000 kPa | 752.4 | –
469.28 K, 5000 kPa | 771.9 | –
469.32 K, 7000 kPa | 792 | –
469.45 K, 100 kPa | 719.5 | –
470.42 K, 10000 kPa | 819.1 | –
475.26 K, 3000 kPa | – | 5.84e-08
475.27 K, 100 kPa | – | 5.74e-08
475.31 K, 7000 kPa | – | 5.99e-08
475.31 K, 10000 kPa | – | 6.1e-08
475.35 K, 5000 kPa | – | 5.92e-08
479.25 K, 100 kPa | 691.6 | –
479.29 K, 3000 kPa | 724.5 | –
479.47 K, 7000 kPa | 764.5 | –
479.9 K, 5000 kPa | 743.2 | –
481.5 K, 10000 kPa | 791.1 | –
488.69 K, 7000 kPa | 740.9 | –
489.53 K, 3000 kPa | – | 5.62e-08
489.54 K, 5000 kPa | – | 5.69e-08
489.54 K, 7000 kPa | – | 5.76e-08
489.54 K, 10000 kPa | – | 5.87e-08
489.57 K, 100 kPa | – | 5.52e-08
490.41 K, 5000 kPa | 715.7 | –
490.81 K, 3000 kPa | 693.8 | –
492.02 K, 10000 kPa | 764.5 | –
499.48 K, 10000 kPa | 745.9 | –
500.41 K, 5000 kPa | 690.3 | –
500.55 K, 7000 kPa | 711.6 | –
500.76 K, 3000 kPa | 667.8 | –
504.58 K, 5000 kPa | – | 5.45e-08
504.77 K, 7000 kPa | – | 5.52e-08
504.79 K, 3000 kPa | – | 5.39e-08
504.94 K, 10000 kPa | – | 5.62e-08
505.38 K, 100 kPa | – | 5.28e-08
509.33 K, 10000 kPa | 722.7 | –
510.27 K, 5000 kPa | 666.3 | –
510.41 K, 7000 kPa | 686.9 | –
510.65 K, 3000 kPa | 642.8 | –
519.26 K, 3000 kPa | – | 5.2e-08
519.36 K, 5000 kPa | – | 5.26e-08
519.41 K, 7000 kPa | – | 5.33e-08
519.6 K, 10000 kPa | – | 5.43e-08
520.04 K, 10000 kPa | 696.8 | –
520.19 K, 3000 kPa | 619.7 | –
520.25 K, 5000 kPa | 642.5 | –
520.27 K, 7000 kPa | 664.6 | –
529.04 K, 10000 kPa | 678 | –
529.91 K, 5000 kPa | 619.5 | –
530.11 K, 7000 kPa | 641.3 | –
530.36 K, 3000 kPa | 595.4 | –
534.46 K, 5000 kPa | – | 5.06e-08
534.75 K, 7000 kPa | – | 5.12e-08
534.77 K, 3000 kPa | – | 5e-08
535.01 K, 10000 kPa | – | 5.22e-08
540.06 K, 7000 kPa | 618.1 | –
540.09 K, 10000 kPa | 651.8 | –
540.12 K, 5000 kPa | 595.3 | –
540.66 K, 3000 kPa | 570.8 | –
548.94 K, 3000 kPa | 551.9 | –
549.74 K, 5000 kPa | 574.5 | –
549.76 K, 3000 kPa | – | 4.77e-08
549.87 K, 10000 kPa | 630.6 | –
549.96 K, 5000 kPa | – | 4.84e-08
549.97 K, 7000 kPa | – | 4.9e-08
549.99 K, 7000 kPa | 596.7 | –
550.17 K, 10000 kPa | – | 4.99e-08
558.46 K, 3000 kPa | 529.8 | –
559.93 K, 5000 kPa | 551.9 | –
561 K, 10000 kPa | 607 | –
562.07 K, 7000 kPa | 570.2 | –
565.49 K, 10000 kPa | – | 4.76e-08
565.86 K, 5000 kPa | – | 4.61e-08
565.87 K, 7000 kPa | – | 4.67e-08
566.27 K, 3000 kPa | – | 4.55e-08
